Measured values: paper PMC7931047, “Discovery of Substituted (2-Aminooxazol-4-yl)Isoxazole-3-carboxylic Acids as Inhibitors of Bacterial Serine Acetyltransferase in the Quest for Novel Potential Antibacterial Adjuvants” (Pharmaceuticals, 2021)
“Also recorded” adds a separate entry of the source. Where two headings read alike, the source gives them in different places.

Columns and labels:
[1] = target: T1, SAT from Salmonella enterica serovar Typhimurium (Salmonella typhimurium, UniProt P29847); experiment: StSAT enzyme activity assay (spectrophotometric indirect assay with Ellman's reagent); type: biochemical; details: for inhibition at 1000 µM: compound at fixed 1 mM, both substrates equal to Km, 5% DMSO
T1 construct: trxA (thioredoxin) fusion; made in house
T1 sequence (P29847 whole entry, the tested form may be a part): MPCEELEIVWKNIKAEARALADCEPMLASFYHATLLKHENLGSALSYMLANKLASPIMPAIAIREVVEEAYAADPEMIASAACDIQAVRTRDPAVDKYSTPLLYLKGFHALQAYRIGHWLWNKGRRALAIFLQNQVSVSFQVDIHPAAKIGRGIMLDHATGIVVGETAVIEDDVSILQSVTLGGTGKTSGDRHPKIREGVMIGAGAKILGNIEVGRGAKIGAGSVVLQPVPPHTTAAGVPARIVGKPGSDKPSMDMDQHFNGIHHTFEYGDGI
Description: Since the primary structure of SAT is highly conserved among bacteria, [38] the virtual screening of our in-house library was performed using the available crystal structures of EcSAT (pdb code: 1T3D) and HiSAT (pdb code: 1SSM), setting the experimental parameters as previously reported by us. After this preliminary analysis, a total of 7 compounds were identified and selected to be evaluated on the recombinant enzyme from S. typhimurium. The enzyme used in these assays has a Km,Ser = 1.07 ± 0.15 mM, a Km,AcCoA = 0.17 ± 0.04 mM, kcat = 3813 ± 169 min^−1 [37].
SAT from Salmonella enterica serovar Typhimurium was expressed as trxA fusion protein as previously described and was more than 95% pure based on SDS-PAGE analysis. The enzyme activity was measured by a spectrophotometric indirect assay that exploits the signal at 412 nm generated by 5,5’-Dithiobis(2-nitrobenzoic acid (Ellmn’s reagent) reduction by the reaction product coenzyme A [37]. A total of 5% DMSO was present in all the assays and was proven not to perturb enzyme activity (data not shown). The concentration of substrates was set equal to Km in order to improve the sensitivity of the assay for both competitive and uncompetitive mechanism of inhibition. The dependence of the relative reaction rate on the concentration of compounds was fitted to Equation (1) to calculate the IC50: vi/v0=1/1+[I]/IC50
The inhibition mechanism was determined by fitting the dependence of the initial reaction rate on the concentration of acetyl CoA (at fixed, 1 mM L-Ser concentration) in the presence of different concentrations of inhibitor ( 1/3IC50≥[inhibitor]≤3IC50 ) to the equation for competitive, uncompetitive and non-competitive mechanisms. The equation that fits a competitive mechanism (Equation (2)) was used to calculate Ki for compound 5: v0=Vmax·[acetyl−CoA]/[acetyl−CoA]+(Km·α) where α=1+([comp5]/Ki) .

[2] = Chemical stability in DMSO solution by 1H NMR at different time points; type: physicochemical; details: 5 mg in 500 μL DMSO-d6, room temperature
Description: Upon noticing changes in the appearance of the DMSO solution over time at room temperature, we deemed it of interest to investigate the chemical stability of the compounds. Therefore, in order to evaluate it, ^1H NMR analysis at different time points (1 h, 2.5 h, and 20 h) of the DMSO solution (5 mg in 500 μL of DMSO-d6) was performed (Supporting Information). Since the time required to observe changes in the colour of the solution was dependent of the substituent at position R2 of series 22, to establish the effect of the substituent on the overall stability of the compound, analogue 22a (R2 = phenyl) which contains the non-substituted phenyl group, analogue 22b (R2 = 3,5-dichlorophenyl), substituted with an EWG and analogue 22d (R2 = 3,5-dimethylphenyl) substituted with an electron donating group (EDG) were selected to perform the chemical stability studies. The stability of the compounds increases in the following order: 22b (stability in DMSO < 2.5 h) < 22a (stability in DMSO < 20 h) < 22d (stability in DMSO < 7 days). Thus, it is possible to conclude that EWGs like the simple phenyl or the phenyl replaced with two chlorines produce fewer stable molecules. On the other hand, the phenyl replaced with EDGs contributes to the overall stability of the molecule. It is hypothesised that the mild oxidative properties of DMSO are able to interfere with the oxazole scaffold, which leads to the opening of the ring and then full degradation of the compound in study.

M. tuberculosis = test system: M. tuberculosis; design: method as in PMID 28749666; details: cited from earlier work
E. coli ATCC25922 = experiment: Minimal Inhibitory Concentration (MIC) assay; type: cell-based; details: Escherichia coli; E. coli ATCC25922, Mueller Hinton broth (MHB)
S. Typhimurium ATCC14028 = experiment: Minimal Inhibitory Concentration (MIC) assay; type: cell-based
StOASS = test system: StOASS; design: method as in PMID 26894308; details: cited from earlier work
[3] = Table 3, synthesised compounds, read-out: StSAT IC50
[4] = Table 2, analogues of compound 5, * = estimated due to solubility issues, read-out: IC50
[5] = values as quoted in the SAR discussion text, read-out: IC50
[6] = StSAT IC50, Table 3, synthesised compounds

## CCOC(=O)c1cc(-c2coc(Nc3cc(Cl)cc(Cl)c3)n2)on1 [Compound 21b, Ethyl 5-(2-((3,5-dichlorophenyl)amino)oxazol-4-yl)isoxazole-3-carboxylate]
[1]; [3]
  IC50: 0.00252 ± 3e-05 mM

## O=C(O)[C@H]1C[C@@H]1c1ccccc1 [Compound 7]
[1]
  inhibition at 1000 µM: > 40%
[1]; virtual screening hit, value printed in mM (μM), read-out: IC50
  IC50: > 2 mM

## Cn1nc(C(=O)O)cc1-c1csc(Nc2cc(Cl)cc(Cl)c2)n1 [Compound 17]
[1]; [4]
  IC50: 0.021 ± 0.005 mM

## CCOC(=O)c1cc(-c2coc(Nc3ccncc3)n2)on1 [Compound 21e, Ethyl 5-(2-(pyridin-4-ylamino)oxazol-4-yl)isoxazole-3-carboxylate]
[1]; [3]
  IC50: 0.00395 ± 0.00065 mM

## O=C(O)c1cc(-c2coc(Nc3ccc(F)cc3)n2)on1 [Compound 22c, 5-(2-((4-fluorophenyl)amino)oxazol-4-yl)isoxazole-3-carboxylic acid]
[1]; [3]
  IC50: 0.00251 ± 0.00034 mM

## Cc1ccc(Nc2nc(-c3cc(C(=O)O)nn3C)cs2)cc1 [Compound 16]
[1]; [4]
  IC50: 0.184 ± 0.013 mM

## CNC(=O)c1cc(-c2csc(Nc3ccc(C)cc3)n2)on1 [Compound 12]
[1]; [5]
  IC50: 0.06 mM

## Cc1ccc(Nc2nc(-c3cc(C(N)=O)no3)cs2)cc1 [Compound 11]
[1]; [4]
  IC50: 0.026 ± 0.004 mM

## Cc1ccc(Nc2nc(-c3cc(C(=O)NC45CC6CC(CC(C6)C4)C5)no3)cs2)cc1 [Compound 10]
[1]; [4]
  IC50: 0.009 ± 0.003 mM

## Cc1ccc(Nc2nc(-c3ccncc3)cs2)cc1 [Compound 8]
[1]; [4]
  IC50: > 0.4 mM

## CCOC(=O)c1cc(-c2coc(Nc3ccccc3)n2)on1 [Compound 21a, Ethyl 5-(2-(phenylamino)oxazol-4-yl)isoxazole-3-carboxylate]
[1]; [3]
  IC50: 0.00268 ± 0.00027 mM

## O=C(O)c1cc(-c2coc(Nc3ccccc3)n2)on1 [Compound 22a, 5-(2-(phenylamino)oxazol-4-yl)isoxazole-3-carboxylic acid]
[2]
  stability in DMSO: < 20 h
[1]; [6]
  IC50: 0.00154 ± 0.00033 mM

## O=C(O)C1C2C=CC(C2)C1C(=O)O (centres unmarked) [Compound 2]
[1]
  inhibition at 1000 µM: 34.9 ± 6%

## Cc1ccc(Nc2nc(-c3cc(C(=O)O)no3)co2)cc1 [Compound 18]
[1]; 18 vs. 5, from IC50
  improvement in the affinity compared to the 2-aminothiazole counterpart: > 40 fold
[1]; [5]
  IC50: 0.0026 mM

## O=C(O)c1cc(-c2csc(Nc3cc(Cl)cc(Cl)c3)n2)on1 [Compound 20]
[1]; [4]
  IC50: 0.011 ± 0.001 mM

## Cc1ccc(C(=O)O)c(N)n1 [Compound 1]
[1]
  inhibition at 1000 µM: 19.4 ± 1%

## COc1ccc(-c2cc(-c3csc(Nc4ccc(C)cc4)n3)on2)cc1 [Compound 9]
[1]; [4]
  IC50: 0.012 ± 0.002 mM

## CCOC(=O)c1cc(-c2csc(Nc3ccc(C)cc3)n2)on1 [Compound 14]
[1]; [4]
  IC50: ~0.01 mM
[1]; [5]
  IC50: 0.01 mM

## Cc1ccc(Nc2nc(-c3cc(C(=O)Nc4ccccc4)no3)cs2)cc1 [Compound 13]
[1]; [4]
  IC50: 0.016 ± 0.003 mM
[1]; [5]
  IC50: 0.0163 mM

## CC(=O)NC(C(=O)O)C(=O)O [Compound 4]
[1]
  inhibition at 1000 µM: 18.7 ± 6%

## CCOC(=O)c1cc(-c2coc(Nc3ccc(C)cc3)n2)on1 [Compound 19]
[1]; [4]
  IC50: 0.007 ± 0.002 mM
[1]; [5]
  IC50: 0.0073 mM

## CCOC(=O)c1cc(-c2coc(Nc3ccc(F)cc3)n2)on1 [Compound 21c, Ethyl 5-(2-((4-fluorophenyl)amino)oxazol-4-yl)isoxazole-3-carboxylate]
[1]; [3]
  IC50: 0.00304 ± 0.00037 mM

## O=C(O)c1cc(-c2coc(Nc3cc(Cl)cc(Cl)c3)n2)on1 [Compound 22b, 5-(2-((3,5-dichlorophenyl)amino)oxazol-4-yl)isoxazole-3-carboxylic acid]
[2]
  stability in DMSO: < 2.5 h
[1]; [6]
  IC50: 0.00803 ± 0.00018 mM

## CCn1c2ccccc2c2cc(CNC)ccc21 [Compound 6]
[1]
  inhibition at 1000 µM: 23.6%

## CCOC(=O)c1cc(-c2csc(Nc3cc(Cl)cc(Cl)c3)n2)on1 [Compound 15]
[1]; [4]
  IC50: 0.018 ± 0.002 mM

## O=C(O)c1cc(-c2coc(Nc3ccncc3)n2)on1 [Compound 22e, 5-(2-(pyridin-4-ylamino)oxazol-4-yl)isoxazole-3-carboxylic acid]
[1]; [3]
  IC50: 0.012 ± 0.00125 mM

## Cc1ccc(Nc2nc(-c3cc(C(=O)O)no3)cs2)cc1 [Compound 5]
[1]; Table 1, virtual screening hits, substrates equal to Km, read-out: IC50
  IC50: 0.11 mM
[1]; competitive towards acetyl-CoA, fixed 1 mM L-Ser
  Ki: 64 ± 12 µM
[1]; inhibition mechanism, varied acetyl CoA at fixed 1 mM L-Ser
  Mechanism: competitive inhibitor; also recorded: Competitive with AcCoA
M. tuberculosis
  activity toward M. tuberculosis: inactive

## CC1CN(C(=O)c2cc3ccccc3[nH]2)CC(C)N1 (centres unmarked) [Compound 3]
[1]
  inhibition at 1000 µM: 31.4 ± 5%

## Cc1cc(C)cc(Nc2nc(-c3cc(C(=O)O)no3)co2)c1 [Compound 22d, 5-(2-((3,5-dimethylphenyl)amino)oxazol-4-yl)isoxazole-3-carboxylic acid]
[2]
  stability in DMSO: < 170 h
[1]; [3]
  IC50: 0.00424 ± 0.00011 mM
E. coli ATCC25922
  MIC: > 128 µM
S. Typhimurium ATCC14028; S. Typhimurium ATCC14028, M9 medium deprived of cysteine
  MIC: > 128 µM
S. Typhimurium ATCC14028; Salmonella enterica, S. Typhimurium ATCC14028, Mueller Hinton broth (MHB)
  MIC: > 128 µM

## Cc1ccc(CC2(C(=O)O)CC2c2ccccc2)cc1 (centres unmarked) [UPAR415]
StOASS
  mechanism of OASS inhibition: competitive inhibitor
